Assay results as given in US8686016B2, “Schweinfurthins and uses thereof” (The United States of America, as represented by the …, priority 2009, dated 2014).
Entries after “also recorded” stand apart in the source; their conditions may differ.

Columns and labels:
[1] = test system: A549 human lung carcinoma cells; experiment: Clonogenic assay, A549; assay type: cell-based; conditions: 18 hrs treatment, colonies after one week
Experimental: Clonogenic Assays: Monolayers of cells were treated for 18 hrs with SA, and then harvested, counted, and seeded to 35 mm dishes at a density of 1000 cells per dish. After one week, macroscopic colonies were stained with crystal violet (Sigma, St. Louis, Mo., USA) and counted.

SF-295 cells = experiment: XTT cell proliferation assay, SF-295; assay type: cell-based, human; conditions: 48 hours
Experimental: XTT Cell Proliferation Assay: Cells were seeded into 96-well plates at a density of 2,000 cells/well and allowed to reattach overnight. Cells were treated with SA, synthetic analogs, camptothecin (NCI Chemotherapeutics Repository, Md., USA), or DMSO control at the indicated concentrations continuously for 48 hours followed by assay in the 96-well plate for relative viable cell number using the dye […] (XTT) and a Wallac-Victor 2 plate reader (Perkin-Elmer, Waltham, Mass., USA). Absorbance was determined at 450 nm with 650 nm as a reference reading. Primary astrocytes were additionally assayed at a 96 hour time point.

MPNST K16561 cells = experiment: XTT cell proliferation assay, K16561; assay type: cell-based, mouse
Experimental: Establishment of NPcis MPNST cell lines: Mice were euthanized by CO2 asphyxiation and tumors were dissected. The tumor volume was measured. The tumor was then cut in half, and ½ fixed in 4% PFA. The other half was rinsed, then cut into 24 pieces of approximately equal size. Each piece was diced with a razor blade and placed in 1 well of a 24 well plate, along with 625 μL of Triple Express (Gibco, Grand Island, N.Y., USA) and 5 μL of recombinant DNAse (Roche, Indianapolis, Ind., USA). Tumors were triturated, then incubated at 37° C. in a 5% CO2 incubator for 2-5 hours, with an additional trituration halfway through incubation time. At the end of the incubation, tumor pieces were triturated again, and suspended cells were transferred to 1.5 mL eppendorf tubes. […] Both plates were monitored for cell growth, grown up to 10 cm plates, and frozen down in 10% DMSO. […]
XTT Cell Proliferation Assay: Cells were seeded into 96-well plates at a density of 2,000 cells/well and allowed to reattach overnight. Cells were treated with SA, synthetic analogs, camptothecin (NCI Chemotherapeutics Repository, Md., USA), or DMSO control at the indicated concentrations continuously for 48 hours followed by assay in the 96-well plate for relative viable cell number using the dye […] (XTT) and a Wallac-Victor 2 plate reader (Perkin-Elmer, Waltham, Mass., USA). […]

## CC(C)=CCC/C(C)=C/Cc1c(O)cc(/C=C/c2cc(O)c3c(c2)C[C@@H]2C(C)(C)[C@H](O)[C@H](O)C[C@@]2(C)O3)cc1O [SA, Schweinfurthin A]
[1]
  colony growth: not inhibited; also recorded: formed colonies up to the highest concentration of SA tested
SF-295 cells
  inhibition of proliferation (percent viability versus control): sensitive; also recorded: inhibited both the KR158 and SF-295 cell lines in a dose dependent manner
MPNST K16561 cells
  inhibition of proliferation (percent viability versus control): dose dependent inhibition of proliferation; also recorded: sensitive
